Read-outs that look alike come from different tables or passages of the source.
Tests used:
[1] = biological target: T1, rCB2 (Rattus norvegicus, UniProt Q9QZN9); assay: Thallium flux assay in HEK/GIRK cells expressing rCB2; format: cell-based; details: for rCB2 GIRK (−) 2-AG % Max ± SEM / rCB2 GIRK (+) 2-AG % Max ± SEM: % of maximal 2-AG response
T1 construct: expressed in transfected cells; host or cells: HEK293 cells stably co-expressing GIRK1/2 channels
T1 sequence (Q9QZN9 1-360): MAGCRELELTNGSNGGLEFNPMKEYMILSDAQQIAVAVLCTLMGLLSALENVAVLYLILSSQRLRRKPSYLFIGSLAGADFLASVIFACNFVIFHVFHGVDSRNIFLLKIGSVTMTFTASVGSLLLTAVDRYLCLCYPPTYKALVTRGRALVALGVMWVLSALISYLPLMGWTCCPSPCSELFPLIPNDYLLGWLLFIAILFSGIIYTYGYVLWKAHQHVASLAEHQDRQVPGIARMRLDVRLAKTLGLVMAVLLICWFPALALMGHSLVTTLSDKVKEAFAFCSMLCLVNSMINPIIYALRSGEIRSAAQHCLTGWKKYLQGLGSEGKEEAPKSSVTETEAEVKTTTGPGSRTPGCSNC
Experimental: To identify new compounds capable of potentiating CB2 responses to the endogenous agonist 2-AG, we used a thallium flux assay measuring the ability of ligands to enhance 2-AG-induced responses in cells expressing rCB2 and GIRK1/2 channels to screen a collection of FDA-approved drugs. Compounds were added to cells loaded with thallium-sensitive dye and allowed to incubate for 2.3 min, whereupon a submaximal concentration (EC20) of 2-AG was added to the cells and the signal was monitored for an additional 2.7 min. The ~1000 compound collection was initially screened at a single point using a 10 µM concentration of the compound. Test compounds that potentiated the cellular response to 2-AG by a minimum of 3 standard deviations above the average EC20 agonist response were selected as potential PAM hits. A total of 63 putative PAMs were identified; of these, 13 were confirmed as active with concentration-dependent activity at the rCB2 receptor.
The cell lines used in this manuscript were generated in-house. Their preparation is described in detail in Qi et al.. Cells were used for 10 passages for experiments and day-to-day signals in both the CB2 and CB1 lines were stable across this passage number. Human Embryonic Kidney (HEK) 293 cells stably expressing rCB2 and the G protein Gqi9 were maintained in Dulbecco’s modified Eagle media (DMEM) containing 10% FBS, 1× antibiotic/antimycotic, 20 mM HEPES, 1 mM sodium pyruvate, 2 mM L-glutamine, 1× non-essential amino acids, 700 µg/mL G418 sulfate, and 0.6 µg/mL puromycin. HEK cells stably expressing rCB2 or rCB1 and the G protein inwardly rectifying potassium channel (GIRK) were maintained in DMEM/F12 containing 10% FBS, 1× antibiotic/antimycotic, 20 mM HEPES, 1 mM sodium pyruvate, 2 mM L-glutamine, 1× non-essential amino acids, 700 µg/mL G418 sulfate, and 0.6 µg/mL puromycin. Cells were monitored by periodic PCR detection using the LookOut Mycoplasma PCR Detection Kit (Sigma-Aldrich, St Louis, MO, USA) to eliminate potential mycoplasma infection. Reagents were obtained from Invitrogen (Waltham, MA, USA) unless otherwise noted.
Thallium flux assays were performed as previously described in Niswender et al., 2008 [31]. HEK/GIRK cells stably expressing rCB1 or rCB2 (15,000 cells/20 µL/well) were seeded in 384-well, poly-D-lysine coated assay plates (Corning BioCoat®) (Corning Inc., Corning, NY, USA) and incubated overnight at 37 °C in the presence of 5% CO2. The next day, the medium was removed and replaced with 20 μL of 1.2 µM thallium-sensitive dye Thallos-AM (ION biosciences, San Marcos, TX, USA), prepared as a DMSO stock solution mixed in a 1:1 ratio with 10% (w/v) pluronic acid F-127, and diluted in assay buffer (Hank’s balanced salt solution, 20 mM HEPES, pH 7.4). Following 1 h at room temperature, the dye solution was removed and replaced with 20 µL assay buffer. For screening of the FDA-Approved Drug Collection, 10 mM DMSO stocks of library compounds were transferred to daughter plates using an Echo acoustic plate reformatter (Labcyte, Sunnyvale, CA, USA) and diluted in assay buffer to a 2× final concentration. For concentration–response curve experiments, compounds were serially diluted 1:3 into 10-point concentration–response curves in DMSO, transferred to daughter plates using the Echo or Bravo Automated Liquid Handling Platform (Agilent Technologies, Santa Clara, CA, USA), and diluted in assay buffer to a 2× final concentration. Thallium flux was measured using the Hamamatsu FDSS/μCELL Kinetic Plate Imager (Bridgewater, NJ, USA). After the establishment of a fluorescence baseline (excitation, 480 ± 20 nm; emission, 540 ± 30 nm), 20 µL (2×) of test compound was added to the cells at 1 s and the response was measured. […]

[2] = biological target: T2, rat CB2 (Rattus norvegicus, UniProt Q9QZN9); assay: β-arrestin recruitment assay (PathHunter, Eurofins) in rat CB2 cells; format: cell-based; set-up: expressed in transfected cells; details: for rCB2 β-Arrestin (−) CP55,940 % Max / rCB2 β-Arrestin (+) CP55,940 % Max: % of maximal CP55,940 response
T2 sequence (Q9QZN9 1-360): T1 sequence (Q9QZN9 1-360)
Experimental: Assays were performed by Eurofins Discovery (Freemont, CA, USA). PathHunter cell lines were expanded from freezer stocks according to standard procedures. Rat CB2 cells were seeded in a total volume of 20 μL into white-walled, 384-well microplates and incubated at 37 °C for the appropriate time prior to testing. For agonist determination, cells were incubated with the sample to induce a response. Intermediate dilution of sample stocks was performed to generate a 5× sample in assay buffer. A total of 5 μL of 5× sample was added to the cells and incubated at 37 °C or room temperature for at least 120 min. The final assay vehicle concentration was 1%. For allosteric modulator determination, cells were pre-incubated with the sample followed by agonist challenge at the EC20. Intermediate dilution of sample stocks was performed to generate a 5× sample in assay buffer. A total of 5 μL of 5× sample was added to cells and incubated at 37 °C or room temperature for 15 min. Vehicle concentration was 1%. Then, 5 μL of 6× EC20 agonist in assay buffer was added to the cells and incubated at 37 °C or room temperature for at least 120 min.
The assay signal was generated through a single addition of 15 μL (50% v/v) of PathHunter Detection reagent cocktail, followed by a one-hour incubation at room temperature. Microplates were read following signal generation with a PerkinElmer Envision^TM instrument for chemiluminescent signal detection.
Compound activity was analyzed using the CBIS data analysis suite (ChemInnovation). For agonist mode assays, percentage activity was calculated using the following formula: % Activity = 100% × (mean RLU of test sample − mean RLU of vehicle control)/(mean MAX control ligand − mean RLU of vehicle control).
For positive allosteric mode assays, percentage modulation was calculated using the following formula: % Modulation = 100% × ((mean RLU of test sample − mean RLU of EC20 control)/(mean RLU of MAX control ligand − mean RLU of EC20 control)).

[3] = rCB2 GIRK (−) 2-AG pEC50 ± SEM, thallium flux, absence of 2-AG
[4] = thallium flux, presence of EC20 2-AG
[5] = rCB2 β-Arrestin (+) CP55,940 pEC50, presence of EC20 CP55,940
[6] = rCB2 β-Arrestin (−) CP55,940 pEC50, absence of CP55,940

Structure (SMILES) | EC50 [1, 3] [nM] | EC50 ([1]; rCB2 GIRK EC50 in absence of 2-AG, thallium flux, absence of 2-AG) [nM] | EC50 ([1]; rCB2 GIRK EC50 in presence of 2-AG, thallium flux, presence of EC20 2-AG) [nM] | rCB2 GIRK (−) 2-AG % Max ± SEM ([1]; thallium flux, absence of 2-AG) [%] | rCB2 GIRK (+) 2-AG % Max ± SEM [1, 4] [%] | rCB2 β-Arrestin (−) CP55,940 % Max ([2]; absence of CP55,940) [%] | rCB2 β-Arrestin (+) CP55,940 % Max ([2]; presence of EC20 CP55,940) [%] | EC50 [2, 5] [nM] | EC50 [2, 6] [nM] | EC50 ([1]; rCB2 GIRK (+) 2-AG pEC50 ± SEM, thallium flux, presence of EC20 2-AG) [nM] | rCB2 GIRK (−) 2-AG pEC50 ± SEM ([1]; thallium flux, absence of 2-AG) | rCB2 GIRK (+) 2-AG pEC50 ± SEM [1, 4] | EC50 ([1]; thallium flux rCB2, vehicle instead of AM630, read-out: pEC50 of mycophenolate mofetil CRC, vehicle (converted)) [nM] | EC50 ([1]; thallium flux, absence of 2-AG, read-out: rCB2 GIRK EC50 in absence of 2-AG) [nM] | EC50 ([1]; thallium flux, presence of EC20 2-AG, read-out: rCB2 GIRK EC50 in presence of 2-AG) [nM] | EC50 ([2]; absence of CP55,940, read-out: rCB2 β-Arrestin (−) CP55,940 pEC50 (converted)) [nM] | EC50 ([2]; presence of EC20 CP55,940, read-out: rCB2 β-Arrestin (+) CP55,940 pEC50 (converted)) [nM]
O=C(NCC1CCOCC1)c1cnc(Nc2ccc(Cl)cc2Cl)nc1C(F)(F)F [GW-842,166X, 2-(2,4-dichloroanilino)-N-(oxan-4-ylmethyl)-4-(trifluoromethyl)pyrimidine-5-carboxamide] | 55 | 56 | 74 | 89 ± 5 | 82 ± 4 | 97 | 120 | 631 | 162 |  |  |  |  |  |  |  | 
CC1(Cc2ccccc2)COc2cc(C(=O)N3CCCCC3)ccc21 (centres unmarked) [MDA7, 1-[(3-benzyl-3-methyl-2,3-dihydro-1-benzofuran-6-yl)carbonyl]piperidine] | > 10000 |  |  | −64 ± 13 | −65 ± 15 | 38 | 40 | > 10000 | 47.9 | > 10000 | < 5.0 | < 5.0 |  |  |  |  | 
COc1c(C)c2c(c(O)c1C/C=C(\C)CCC(=O)OCCN1CCOCC1)C(=O)OC2 [Mycophenolate mofetil] |  |  |  | 71 ± 5 | 74 ± 2 | 114 | 113 |  |  |  |  |  | 339 | 154 | 228 | 1150 | 1350
COc1c(C)c2c(c(O)c1C/C=C(\C)CCC(=O)O)C(=O)OC2 [Mycophenolic acid] |  |  |  |  |  |  |  |  |  |  |  | Inactive |  |  |  |  | 
